What was measured:
Format in all cases: in vitro ADME
[1] = Human microsome stability assay; conditions: 1 μM test compound, 0.5 mg/mL protein
Protocol: The human microsomal stability assay is used for early assessment of metabolic stability of a test compound in human liver microsomes.
Human liver microsomes (Cat. NO.: 452117, Corning, USA; Cat. NO.: H2610, Xenotech, USA) were preincubated with test compound for 10 minutes at 37° C. in 100 mM potassium phosphate buffer, pH 7.4. The reactions were initiated by adding NADPH regenerating system. The final incubation mixtures contained 1 μM test compound, 0.5 mg/mL liver microsomal protein, 1 mM MgCl2, 1 mM NADP, 1 unit/mL isocitric dehydrogenase and 6 mM isocitric acid in 100 mM potassium phosphate buffer, pH 7.4. After incubation times of 0, 3, 6, 9, 15 and 30 minutes at 37° C., 300 μL of cold ACN (including internal standard) was added to 100 μL incubation mixture to terminate the reaction. Following precipitation and centrifugation, the amount of compound remaining in the samples were determined by LC-MS/MS. Controls of no NADPH regenerating system at zero and 30 minutes were also prepared and analyzed. The results were categorized as: low (<7.0 mL/min/kg), medium (7.0˜16.2 mL/min/kg) and high (16.2-23.2 mL/min/kg).

CYP2D6 = molecular target: T1, CYP2D6 (Homo sapiens, UniProt P10635); assay: CYP inhibition assay in human liver microsome, CYP2D6; conditions: HLM, dextromethorphan substrate; for inhibition at 10 min, 10 µM: human, liver microsomes, probe dextromethorphan, read-out: CYP inhibition % @10 uM (2D6)
T1 construct: tissue BD-Gentest 452117; host or cells: human liver microsomes
T1 sequence (P10635 whole entry): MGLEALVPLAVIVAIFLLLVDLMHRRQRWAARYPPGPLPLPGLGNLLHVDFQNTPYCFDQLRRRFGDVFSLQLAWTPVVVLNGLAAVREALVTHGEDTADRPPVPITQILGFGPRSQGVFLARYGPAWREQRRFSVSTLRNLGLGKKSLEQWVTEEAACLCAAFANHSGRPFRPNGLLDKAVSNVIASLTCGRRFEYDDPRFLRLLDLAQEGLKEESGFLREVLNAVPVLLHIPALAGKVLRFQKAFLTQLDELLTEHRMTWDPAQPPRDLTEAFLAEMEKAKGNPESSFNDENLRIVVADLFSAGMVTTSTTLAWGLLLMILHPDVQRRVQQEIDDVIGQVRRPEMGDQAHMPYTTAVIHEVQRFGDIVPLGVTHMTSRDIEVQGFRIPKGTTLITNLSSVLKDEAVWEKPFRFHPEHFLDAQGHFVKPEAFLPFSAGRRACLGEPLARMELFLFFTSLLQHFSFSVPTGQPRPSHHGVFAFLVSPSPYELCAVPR
Protocol: (§1) This is a high throughput screening assay used for assessment of reversible inhibition of CYP2C9, CYP2D6, and CYP3A4 activity of test compounds in human liver microsome (HLM) in early discovery stage.
(§2) 10 mM DMSO stock solutions of test compounds were diluted in DMSO to generate 2 mM intermediate stock solution. 250 nL of intermediate stock solution were transferred in duplicate into 3 separate 384 well microtitre plates (assay-ready plates). A mixture of HLM and each substrate was made up. 45 μL of HLM substrate mix was then transferred to each well of an assay ready plate and mixed. The negative (solvent) and positive controls (standard inhibitor for each CYP) were included in each assay ready plate. The assay ready plate was warmed to 37° C. in an incubator over 10 minutes. 5 μL pre-warmed NADPH regenerating system was added to each incubation well to start the reaction. Final incubation volume was 50 μL. The assay plate then was placed back in the 37° C. incubator. After 5 minutes incubation (10 minutes for CYP2D6), incubates were quenched by addition of 50 μL quench reagent containing internal standards (400 ng/mL 13C6-4′-OH-Diclofenac, 20 ng/mL D3-Dextrorphan and 20 ng/mL D4-1′OH-Midazolam in acetonitrile). The supernatants were collected for RapidFire/MS/MS analysis.
(§3) RapidFire online solid phase extraction/sample injection system (Agilent) coupled with API4000 triple quadrupole mass spectrometer (AB Sciex) were used for sample analysis. The mobile phase composed of acetonitrile and water supplemented with 0.1% formic acid. A C4 solid phase extraction cartridge is used for sample separation. MS detection is achieved in positive ion MRM mode.
(§4) Peak areas for substrate, metabolite and internal standard are determined using the
(§5) RapidFire integrator software (version 3.6.12009.12296). Peak area ratios (PAR) of metabolite and internal standard (stable-labelled metabolite) are then calculated. The measurement window for each experiment is then defined:
(§6) PAR (0% activity)=average PAR for all incubations containing concentrated inhibitor;
(§7) Par (100% activity)=average PAR for all incubations containing no inhibitor (DMSO controls);
(§8) % Activity (test inhibitor) =[PAR(test inhibitor)-PAR(0% activity)][PAR(100% activity)-PAR(0% activity)];
(§9) % Inhibition (test inhibitor)=100-% Activity (test inhibitor).
(§10) Percentage inhibition data are then reported, in duplicate, for the 3 CYP enzymes.

CYP3A4 = molecular target: T2, CYP3A4 (Homo sapiens, UniProt P08684); assay: CYP inhibition assay in human liver microsome, CYP3A4; conditions: HLM, midazolam substrate; for inhibition at 5 min, 10 µM: human, liver microsomes, probe midazolam, read-out: CYP inhibition % @10 uM (3A4)
T2 construct: tissue BD-Gentest 452117; host or cells: human liver microsomes
T2 sequence (P08684 whole entry): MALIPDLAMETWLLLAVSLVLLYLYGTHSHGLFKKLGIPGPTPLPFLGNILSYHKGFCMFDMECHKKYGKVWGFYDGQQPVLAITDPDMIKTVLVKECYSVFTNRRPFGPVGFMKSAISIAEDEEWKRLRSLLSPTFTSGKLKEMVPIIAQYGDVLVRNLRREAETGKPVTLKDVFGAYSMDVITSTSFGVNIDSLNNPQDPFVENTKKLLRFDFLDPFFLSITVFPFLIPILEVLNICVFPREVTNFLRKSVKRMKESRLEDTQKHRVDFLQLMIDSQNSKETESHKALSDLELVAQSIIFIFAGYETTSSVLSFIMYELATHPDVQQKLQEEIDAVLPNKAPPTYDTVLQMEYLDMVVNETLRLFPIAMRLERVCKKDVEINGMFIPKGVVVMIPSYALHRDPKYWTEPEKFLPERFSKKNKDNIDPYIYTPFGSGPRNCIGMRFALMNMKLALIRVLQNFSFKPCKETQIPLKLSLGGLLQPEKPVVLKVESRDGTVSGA
Protocol: as §1, §2, §3, §4, §5, §6, §7, §8, §9, §10

SMILES | clearance in human liver microsomes [1] [mL/min/kg] | inhibition at 10 min, 10 µM (CYP2D6) [%] | inhibition at 5 min, 10 µM (CYP3A4) [%] | CYP inhibition % @10 uM (2D6) (CYP2D6) [%] | CYP inhibition % @10 uM (3A4) (CYP3A4; 10 µM) [%]
C[C@@H]1CN(c2ccc(C(F)(F)F)c3ncccc23)C[C@H](C(=O)N[C@@H]2CNC[C@@H]2F)O1 (single isomer, unassigned) [Example 2A] | 6.15 | 9 | 5 | – | –
C[C@@H]1CN(c2ccc(C(F)(F)F)c3ncccc23)C[C@H](C(=O)NC2CC3CCCC(C2)N3)O1 (single isomer, unassigned) [Example 34B] | 6.17 | – | -28 | −10 | –
C[C@@H]1CN(c2ccc(C(F)(F)F)c3ncccc23)C[C@H](C(=O)NC2CC3CNCC32)O1 (single isomer, unassigned) [Example 49B] | 6.15 | – | – | −12 | −36
C[C@@H]1CN(c2ccc(C(F)(F)F)c3ncccc23)C[C@H](C(=O)NC2CCN(C)CC2)O1 [Example 5, (2R,6R)-6-methyl-N-(1-methyl-4-piperidyl)-4-[8-(trifluoromethyl)-5-quinolyl]morpholine-2-carboxamide] | 6.15 | 16 | -13 | – | –
C[C@@H]1CN(c2ccc(C(F)(F)F)c3ncccc23)C[C@H](C(=O)NCC(C)(C)N)O1 [Example 6, (2R,6R)-N-(2-amino-2-methyl-propyl)-6-methyl-4-[8-(trifluoromethyl)-5-quinolyl]morpholine-2-carboxamide] | 6.15 | 13 | -10 | – | –
C[C@@H]1CN(c2ccc(C(F)(F)F)c3ncccc23)C[C@H](C(=O)NC2CCCNCC2)O1 (stereo partly drawn) [Example 8, (2R,6R)-N-(azepan-4-yl)-6-methyl-4-[8-(trifluoromethyl)-5-quinolyl]morpholine-2-carboxamide] | 6.15 | 10 | -34 | – | –
C[C@@H]1CN(c2ccc(C(F)(F)F)c3ncccc23)C[C@H](C(=O)N2CCC(N)C2)O1 (stereo partly drawn) [Example 10, (3-aminopyrrolidin-1-yl)-[(2R,6R)-6-methyl-4-[8-(trifluoromethyl)-5-quinolyl]morpholin-2-yl]methanone] | 6.15 | 26 | 10 | – | –
C[C@@H]1CN(c2ccc(C(F)(F)F)c3ncccc23)C[C@H](C(=O)N2CCC(N)CC2)O1 [Example 12, (4-amino-1-piperidyl)-[(2R,6R)-6-methyl-4-[8-(trifluoromethyl)-5-quinolyl]morpholin-2-yl]methanone] | 6.15 | 7 | – | – | –
Cc1ccc(N2C[C@@H](C)O[C@@H](C(=O)NC3CCN(C)CC3)C2)c2cccnc12 [Example 16, (2R,6R)-6-methyl-N-(1-methyl-4-piperidyl)-4-(8-methyl-5-quinolyl)morpholine-2-carboxamide] | 6.15 | 5 | 2 | – | –
Cc1ccc(N2C[C@@H](C)O[C@@H](C(=O)NCC3CN(C)CCO3)C2)c2cccnc12 (stereo partly drawn) [Example 17, (2R,6R)-6-methyl-N-[(4-methylmorpholin-2-yl)methyl]-4-(8-methyl-5-quinolyl)morpholine-2-carboxamide] | 6.15 | 3 | -5 | – | –
C[C@H]1C[C@@H](N)CN(c2ccc(Cl)c3ncccc23)C1 [Example 23, (3R,5S)-1-(8-chloro-5-quinolyl)-5-methyl-piperidin-3-amine] | 6.15 | 35 | – | – | –
C[C@@H]1CN(c2ccc(Cl)c3ncccc23)C[C@H](C(=O)NC2CCN(C)CC2)O1 [Example 24, (2R,6R)-4-(8-chloro-5-quinolyI)-6-methyl-N-(1-methyl-4-piperidyl)morpholine-2-carboxamide] | 6.15 | -6 | – | – | –
C[C@@H]1CN(c2ccc(Cl)c3ncccc23)C[C@H](C(=O)NC2CCCNCC2)O1 (stereo partly drawn) [Example 25, (2R,6R)-N-(azepan-4-yl)-4-(8-chloro-5-quinolyl)-6-methyl-morpholine-2-carboxamide] | 7.16 | 0 | 2 | – | –
C[C@@H]1CN(c2ccc(Cl)c3ncccc23)C[C@H](C(=O)NCC2CN(C)CCO2)O1 (stereo partly drawn) [Example 26, (2R,6R)-4-(8-chloro-5-quinolyl)-6-methyl-N-[(4-methylmorpholin-2-yl)methyl]morpholine-2-carboxamide] | 6.15 | 3 | -5 | – | –
C[C@@H]1CN(c2ccc(C(F)(F)F)c3ncccc23)C[C@H](C(=O)NC[C@@H]2C[C@@H](F)CN2)O1 [Example 27, (2R,6R)-N-[[(2S,4R)-4-fluoropyrrolidin-2-yl]methyl]-6-methyl-4-[8-(trifluoromethyl)-5-quinolyl]morpholine-2-carboxamide] | 6.15 | 6 | -2 | – | –
C[C@@H]1CN(c2ccc(C(F)(F)F)c3ncccc23)C[C@H](C(=O)NC2C3CCC2CNC3)O1 (stereo partly drawn) [Example 31, (2R,6R)-N-(3-azabicyclo[3.2.1]octan-8-yl)-6-methyl-4-[8-(trifluoromethyl)-5-quinolyl]morpholine-2-carboxamide] | 6.15 | 2 | -29 | – | –
C[C@@H]1CN(c2ccc(I)c3ncccc23)C[C@H](C(=O)NC2CCN(C)CC2)O1 [Example 38, (2R,6R)-4-(8-iodo-5-quinolyl)-6-methyl-N-(1-methyl-4-piperidyl)morpholine-2-carboxamide] | 7.04 | -1 | -2 | – | –

From patent US20220363665A1, “QUINOLINE COMPOUNDS FOR THE TREATMENT OF AUTOIMMUNE DISEASE” (Hoffmann-La Roche Inc., priority 2019, published 2022)
